The source of these data is article PMC6498537, “Biomimetic synthesis of the natural product salviadione and its hybrids: discovery of tissue-specific anti-inflammatory agents for acute lung injury” (Chemical Science, 2019).

Read-outs that look alike come from different tables or passages of the source.

What is called IC50 is the midpoint of a concentration-inhibition curve. Usually half-life stands for the time needed for the level to fall by half in the phase considered. What is called AUC is the area under the concentration-time curve, a measure of exposure. Higher therefore signals high exposure. In general, Cmax refers to the maximum level reached in the sampled fluid or tissue.

The subject of one data set is LPS-induced IL-6 release. As to the kind of experiment: LPS-induced IL-6 release in mouse primary peritoneal macrophages (ELISA). It is filed as cell-based. The note with it: Peritoneal macrophage, LPS (0.5 μg/mL) 24 h, 30 min pretreatment, read-out: IC50 against the release of IL-6. On the procedure: (§1) Figure S3. Inhibitory activity of the benzo[def]carbazole-3,5-diones against LPS-induced TNF-α and IL-6 secretion in mouse peritoneal macrophages. Macrophages were plated at a density of 5 × 10^5/plate for overnight at 37 °C and in 5% CO2. Cells were pretreated with 5 or tanshinone analogues (10 μM) for 30 min, then treated with LPS (0.5 μg/mL) for 24 h. L6H21 (19) was used as a positive control. TNF-α and IL-6 levels in the culture medium were measured by ELISA and were normalized by the total protein level. The results were presented as the percent of LPS control. Each bar represents the mean ± SD of three independent experiments.
(§2) Statistical significance relative to the LPS group is indicated: ∗ , p < 0.05; ∗∗, p < 0.01.
(§3) (1 picture or pasted object on this page, not shown here)
(§4) Figure S5. […]
(§5) 30 min, then treated with LPS (0.5 μg/mL) for 24 h. IL-6 and TNF-α levels in the culture media were measured by ELISA and were normalized by the total protein. The results were expressed as the percent of LPS. […]
(§6) Determination of TNF-α and IL-6. The levels of TNF-α and IL-6 in medium, bronchoalveolar lavage fluid (BALF) and serum were determined with an ELISA kit (eBioScience, San Diego, CA) according to the manufacturer’s instructions. The total amount of the inflammatory factor in the medium was normalized to the total protein quantity of the viable cell pellets. […]

Data set [1] is described as follows: Liver microsomal stability assay, human. It is filed as in vitro ADME. On the procedure:
Liver Microsomal Stability Assay. Microsomes in 0.1 M TRIS buffer pH 7.4 (final concentration 0.33 mg/mL), co-factor MgCl2 (final concentration 5 mM) and tested compound (final concentration 0.1 μM, co-solvent (0.01% DMSO) and 0.005% Bovin serum albumin) were incubated at 37°C for 10min. The reaction was started by the addition of NADPH (final concentration 1 mM). Aliquots were sampled at 0, 7, 17, 30 and 60 min, respectively, and methanol (cold in 4 °C) was added to terminate the […]
reaction. […]
In general terms: Microsomes from liver hold many membrane-bound enzymes, among them those of drug oxidation.

For data set [2], the target named is T1, hERG potassium ion channel (Homo sapiens, UniProt Q12809).
T1 construct: expressed in transfected cells; host or cells: HEK293 (human embryonic kidney cells stably expressing hERG channels)
T1 sequence (Q12809 whole entry): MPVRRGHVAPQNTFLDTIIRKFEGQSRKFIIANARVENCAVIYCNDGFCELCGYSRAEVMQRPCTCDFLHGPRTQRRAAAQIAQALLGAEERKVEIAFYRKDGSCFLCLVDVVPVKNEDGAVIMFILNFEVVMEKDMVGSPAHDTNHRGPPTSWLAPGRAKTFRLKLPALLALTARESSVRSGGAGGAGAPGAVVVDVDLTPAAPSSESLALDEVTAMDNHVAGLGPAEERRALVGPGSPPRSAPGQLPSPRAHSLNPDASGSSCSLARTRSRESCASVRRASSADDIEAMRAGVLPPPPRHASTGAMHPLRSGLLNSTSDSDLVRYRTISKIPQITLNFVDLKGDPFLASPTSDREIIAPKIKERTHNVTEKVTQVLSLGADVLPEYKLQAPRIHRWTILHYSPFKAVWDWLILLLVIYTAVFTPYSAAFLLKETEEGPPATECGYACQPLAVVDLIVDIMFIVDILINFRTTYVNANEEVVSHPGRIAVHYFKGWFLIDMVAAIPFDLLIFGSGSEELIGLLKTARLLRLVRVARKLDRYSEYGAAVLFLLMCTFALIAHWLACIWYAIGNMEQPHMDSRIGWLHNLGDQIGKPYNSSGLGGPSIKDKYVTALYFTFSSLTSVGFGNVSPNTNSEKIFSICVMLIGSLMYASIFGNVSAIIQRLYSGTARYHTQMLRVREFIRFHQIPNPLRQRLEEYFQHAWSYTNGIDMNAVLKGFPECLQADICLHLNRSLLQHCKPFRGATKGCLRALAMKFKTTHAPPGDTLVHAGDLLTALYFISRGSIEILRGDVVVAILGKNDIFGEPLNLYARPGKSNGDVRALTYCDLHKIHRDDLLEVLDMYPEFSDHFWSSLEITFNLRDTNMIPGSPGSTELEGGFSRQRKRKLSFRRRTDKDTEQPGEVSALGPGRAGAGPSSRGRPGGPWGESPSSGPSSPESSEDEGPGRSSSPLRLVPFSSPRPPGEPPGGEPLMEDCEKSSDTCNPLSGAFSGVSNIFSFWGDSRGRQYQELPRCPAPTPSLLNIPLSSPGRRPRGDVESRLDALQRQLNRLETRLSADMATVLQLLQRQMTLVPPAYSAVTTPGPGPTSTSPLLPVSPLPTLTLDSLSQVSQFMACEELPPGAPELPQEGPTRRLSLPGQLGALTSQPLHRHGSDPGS
The experiment in a line: hERG cardiotoxicity assay (manual patch clamp, HEK293). It is filed as cell-based. The note with it: whole-cell patch clamp, read-out: hERG inhibition IC50. For orientation: The hERG channel carries a current that helps repolarise heart muscle cells.
Method: hERG Cardiotoxicity Assay. The human embryonic kidney cells stably expressing hERG channels were used in the study.
vehicle control were delivered separately to the clamped cells by a 6-channel perfusion system. The hERG channel tail currents were recorded by clampex 10.3. The data were collected and analyzed by clampfit 10.3. The peak of the tail currents in the presence of positive control and test article were normalized with the currents recorded in the presence of corresponding vehicle control as 100 %, respectively. The IC50 value was calculated using GraphPad Prism 5.00.

Data set [3] has as its system LPS-induced TNF-α release. As to the kind of experiment: LPS-induced TNF-α release in mouse primary peritoneal macrophages (ELISA). It is filed as cell-based. The note with it: Peritoneal macrophage, LPS (0.5 μg/mL) 24 h, 30 min pretreatment, read-out: IC50 against the release of TNF-α. How it is done:
as §1, §2, §3, §4, §5, §6
(ELISA stands for enzyme-linked immunosorbent assay.)

Data set [4] can be described thus: Preliminary pharmacokinetic parameters (p.o. and i.v.). Format: in vivo. The note with it: for MRT inf: read-out: MRTINF_obs. On the procedure: Table S4. Preliminary Pharmacokinetic Parameters for Compound 15a a-c
T1/2 Tma Cmax AUC CL_obs MRTINF_obs Vss_obs F […]
aValues are the average of three runs. Vehicle: DMSO, Tween 80, normal saline. CL, clearance; Vss, volume of distribution; T1/2, half-life; Cmax, maximum concentration; Tmax, time of maximum concentration; MRT, mean residence time; AUC, area under the plasma concentration time curve; F, oral bioavailability. bDose: p.o. at 3.0 mg/kg; cDose: i.v. at 1.0

As to `Cc1coc2c1C(=O)c1c3c-2ccc2c3c(n1Cc1ccccc1)C(=O)CC2(C)C` [Compound 15a], the IC50 in the data set on LPS-induced IL-6 release was found to be 1.62 µM. Further, the “enhancement of metabolic stability compared to 2” value in data set [1] (human and rat microsomes) is 4- to 7 fold. The Clint in vitro in data set [1] (human liver microsomes) was found to be 61.62 mL min^–1 g^–1 protein. The compound further registered a half-life at 0.1 μM in data set [1] (pH 7.4, human liver microsomes) of 0.568 h. The IC50 in data set [2] was more than 40 µM. Also, the IC50 in data set [3] is 6.37 µM. The same compound registered a Vss_obs in data set [4] (iv, 1.0 mg/kg) of 5.98 L/kg. For the same compound, in data set [4] (plasma, iv, 1.0 mg/kg), the AUC came to 485 ng·h/mL, the half-life was 5 h and the MRT inf came out at 2.98 h. In addition, in data set [4] (plasma, iv, 1.0 mg/kg, read-out: CL_obs), the clearance stood at 34.9 mL/min/kg. Further, in data set [4] (plasma, po, 3.0 mg/kg), the AUC was determined as 426 ng·h/mL, the Cmax worked out at 81.2 ng/mL and the MRT inf is 5.33 h. For the same compound, the “F (oral bioavailability)” value in data set [4] (po 3.0 mg/kg vs iv 1.0 mg/kg) is on record as 30.2%. In data set [4] (po, 3.0 mg/kg), the T1/2 worked out at 4.05 h and the Tma is listed as 1.83 h.
